Experimental data from PubChem BioAssay (NCI).
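Where inhibition never reached the appropriate level, the endpoint shown equals the highest concentration tested. Otherwise, values were interpolated linearly from a five-concentration, 48-hour dose response in 96-well plates. Here, GI50 denotes the concentration required for 50% inhibition of growth. TGI denotes the concentration required for complete inhibition of growth.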

Tests used:
Test in all cases: growth of human tumour cells (NCI), 48 h
786-0 renal = system: 786-0 renal
A498 renal = system: A498 renal
MOLT-4 leukemia = system: MOLT-4 leukemia
OVCAR-3 ovarian = system: OVCAR-3 ovarian
OVCAR-4 ovarian = system: OVCAR-4 ovarian
SK-MEL-5 melanoma = system: SK-MEL-5 melanoma
SNB-19 CNS = system: SNB-19 CNS
SR leukemia = system: SR leukemia
UACC-257 melanoma = system: UACC-257 melanoma
UO-31 renal = system: UO-31 renal

Structure (SMILES)	TGI (786-0 renal) [µM]	TGI (A498 renal) [µM]	TGI (MOLT-4 leukemia) [µM]	TGI (OVCAR-3 ovarian) [µM]	TGI (OVCAR-4 ovarian) [µM]	TGI (SK-MEL-5 melanoma) [µM]	TGI (SNB-19 CNS) [µM]	TGI (SR leukemia) [µM]	TGI (UACC-257 melanoma) [µM]	TGI (UO-31 renal) [µM]	GI50 (786-0 renal) [µM]	GI50 (A498 renal) [µM]	GI50 (MOLT-4 leukemia) [µM]	GI50 (OVCAR-3 ovarian) [µM]	GI50 (OVCAR-4 ovarian) [µM]	GI50 (SK-MEL-5 melanoma) [µM]	GI50 (SNB-19 CNS) [µM]	GI50 (SR leukemia) [µM]	GI50 (UACC-257 melanoma) [µM]	GI50 (UO-31 renal) [µM]
C/C(=N\NS(=O)(=O)c1ccc(C)cc1)c1ccc[n+]([O-])n1	> 100	> 100	> 100	> 100	> 100	> 100	> 100	> 100	> 100	> 100	–	–	–	–	–	–	–	–	–	–
O=C(/C=C/N1CCN(c2cccc(C(F)(F)F)c2)CC1)c1ccc(Cl)cc1Cl	39.8	38.8	70.2	19.3	53.2	36.9	> 100	56	61	> 100	20.8	21.6	28.8	2.44	25.1	19.2	47.7	30.1	26.5	31.3
COc1ccc(C[C@H]2C[C@@H](O)[C@@H](C)C/C=C/Cc3cccc(O)c3C(=O)O2)cn1	77.7	31.4	> 100	> 100	74.1	35.1	> 100	33.7	71.4	66.1	18	0.712	35.4	50.5	23.7	17.6	38.9	7.44	21.5	19.9
COc1cccc(-c2nn(-c3ccccc3)cc2-c2ccnc(NCCNC(=O)Nc3ccc(Cl)c(Cl)c3)c2)c1	3.28	–	7.11	8.2	16.2	3.71	9.8	6.02	20.3	5.03	1.55	–	2.31	2.59	3.25	1.95	2.63	1.51	3.63	1.44
CCC1OCCN1C(C)C (configuration not stated)	> 100	> 100	> 100	–	–	> 100	> 100	> 100	> 100	> 100	–	–	–	–	–	–	–	–	–	–
CCOP(=O)(OCC)/C(C#N)=C\c1cccc2ccccc12	> 100	98.7	> 100	> 100	> 100	> 100	> 100	> 75.1	> 100	> 100	–	–	–	–	–	–	–	–	–	–
COc1ccc2nc3ccc(OC)cc3c(SCCCN)c2c1	15.2	56.5	6.34	6.88	17	25.7	36.7	3.64	29.8	18.3	6.85	19.4	2.2	2.73	5.02	7.82	14.4	1.54	15.6	3.91
COc1ccccc1Cn1cc2c(c1)-c1oncc1CC2	29.7	3.44	14.8	0.888	97.9	6.77	> 100	8.95	> 63.6	42.7	2.44	0.269	0.477	0.307	3.86	0.45	0.625	0.379	10.4	4.28
O=C(N[C@@H]1CCCc2ccccc21)[C@H](CCC(=O)N1CCN(C2CCCCC2)CC1)N1C(=O)[C@@H](N2C(=O)OC[C@@H]2c2ccccc2)[C@H]1/C=C/c1ccccc1	4.07	5.3	> 100	3.81	32	2.71	25.2	> 100	3.36	8.68	1.86	1.76	2.27	1.72	3.11	1.37	3.66	2.68	1.49	2.01
COc1cc[nH]c1/C=C1\C(=O)Nc2ccc(F)c(C#CC3(O)CCOCC3)c21	> 25	1.67	2.92	2.25	14.7	1.19	> 19.5	2.75	2.76	> 6.99	0.824	0.573	0.679	0.911	2.34	0.497	1.02	0.447	0.749	0.512
Nc1ncnc2occ(-c3ccc(NC(=O)Nc4cc(C(F)(F)F)cc(C(F)(F)F)c4)cc3)c12	7.07	1.62	17.8	6.71	5.92	6.82	9.54	15.2	6.69	6.89	3.54	0.144	4.16	3.24	1.81	3.52	4.1	2.03	3.27	1.93
CC1=NN(C(=O)CC(=O)Nc2cccc(Cl)c2)C(=O)C1N=Nc1ccc(S(N)(=O)=O)cc1 (configuration not stated)	> 100	> 100	> 100	> 100	> 100	> 100	> 100	> 100	> 100	> 100	–	–	–	–	–	–	–	–	–	–
CC1(C)N=C(N)N=C(N)N1c1ccc(OCC(=O)Nc2cccc(S(=O)(=O)F)c2)c(Cl)c1	> 42.5	–	> 100	> 76.8	> 100	> 91.9	> 100	> 100	> 14.2	> 100	–	–	–	–	–	–	–	–	–	–
COc1ccc2c(c1O)[C@@]13C=C(O)C(=O)C=C1[C@@H](C2)N(C)CC3	> 100	–	> 100	> 100	> 100	> 100	> 100	> 100	> 100	> 100	–	–	–	–	–	–	–	–	–	–
CC(C)(C)n1cc(-c2ccnc(NCCNS(=O)(=O)c3ccc(Br)cc3)c2)c(-c2cccc(O)c2)n1	3.82	3.19	–	3.68	3.59	2.67	5.67	6.16	4.76	4.47	1.72	1.37	–	1.85	1.55	1.36	2.29	0.286	1.93	1.35
